One compound from patent publication US20160138077A1, “MONITORING AND ASSESSING DEACETYLASE ENZYME ACTIVITY” (THE GENERAL HOSPITAL CORPORATION, priority 2013, published 2016) can be followed below.

SMILES strings stand for the structures.

In this assay the target is T1, HDAC6 (Homo sapiens, UniProt Q9UBN7).
T1 sequence (Q9UBN7 1-1215): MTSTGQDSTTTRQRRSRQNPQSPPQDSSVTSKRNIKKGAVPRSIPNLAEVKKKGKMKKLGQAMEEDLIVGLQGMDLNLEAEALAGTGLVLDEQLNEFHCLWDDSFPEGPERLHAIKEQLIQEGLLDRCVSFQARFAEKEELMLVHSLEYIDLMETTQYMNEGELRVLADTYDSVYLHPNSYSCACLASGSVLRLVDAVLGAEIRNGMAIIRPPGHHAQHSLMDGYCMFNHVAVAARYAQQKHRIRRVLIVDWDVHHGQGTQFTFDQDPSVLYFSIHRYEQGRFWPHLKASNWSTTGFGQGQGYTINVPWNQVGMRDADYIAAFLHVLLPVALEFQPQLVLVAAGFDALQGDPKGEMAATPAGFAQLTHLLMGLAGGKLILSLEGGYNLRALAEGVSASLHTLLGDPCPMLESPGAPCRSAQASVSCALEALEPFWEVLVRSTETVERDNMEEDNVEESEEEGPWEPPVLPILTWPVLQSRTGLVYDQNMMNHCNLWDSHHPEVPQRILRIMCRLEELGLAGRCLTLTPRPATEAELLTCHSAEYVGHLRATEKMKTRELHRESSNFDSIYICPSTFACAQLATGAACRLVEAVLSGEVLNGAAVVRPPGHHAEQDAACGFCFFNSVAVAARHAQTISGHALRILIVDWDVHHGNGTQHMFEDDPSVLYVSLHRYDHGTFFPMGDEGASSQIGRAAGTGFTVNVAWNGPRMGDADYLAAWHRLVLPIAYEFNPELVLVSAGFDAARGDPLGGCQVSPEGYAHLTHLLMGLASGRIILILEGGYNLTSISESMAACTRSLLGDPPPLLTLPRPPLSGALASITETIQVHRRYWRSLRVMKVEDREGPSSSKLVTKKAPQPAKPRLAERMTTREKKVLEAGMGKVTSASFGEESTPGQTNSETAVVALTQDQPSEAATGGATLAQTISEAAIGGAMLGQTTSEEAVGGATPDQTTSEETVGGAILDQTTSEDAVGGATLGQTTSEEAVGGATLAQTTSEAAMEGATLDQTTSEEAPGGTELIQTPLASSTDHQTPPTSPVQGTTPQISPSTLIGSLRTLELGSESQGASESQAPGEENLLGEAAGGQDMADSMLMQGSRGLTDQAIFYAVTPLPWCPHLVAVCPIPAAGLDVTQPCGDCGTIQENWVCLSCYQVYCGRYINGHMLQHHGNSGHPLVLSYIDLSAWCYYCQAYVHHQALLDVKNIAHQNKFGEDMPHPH
The assay is described as follows: LCMS characterization of enzymatic deacetylation by HDAC6. Particulars: 5 μM probe, 12 hours at 37° C. The class given is biochemical. As for the experimental part:
The enzymatic cleavage of HP-1 and HP-2 was analyzed by performing LCMS assays with HeLa nuclear extract (AnaSpec), HeLa whole cell lysate (Santa Cruz Inc.), and the following purified HDAC isoforms: 1, 2, 3, 6 and 8 (HDAC1, 3 and 8 from Cayman Chemicals and HDAC2 and 6 provided by Dr. Stephen Haggarty). Solutions containing (i) vehicle with DMSO in HDAC buffer, (ii) 5 μM probe in HDAC buffer, (iii) 5 μM probe and HDAC enzyme/HeLa nuclear extract/HeLa whole cell lysate in HDAC buffer, or (iv) 5 μM probe and HDAC enzyme/HeLa nuclear extract/HeLa whole cell lysate pre-incubated with 10 μM SAHA (Provided by Dr. Stephen Haggarty) in HDAC buffer were incubated for 12 hours at 37° C. Following incubation, a 20 μL aliquot of supernatant from each sample was analyzed by LCMS. […] For HP-1, the (M+H)^+ ion for the corresponding aldehyde (8, DHP-1) was detected, which formed following reaction of the initial imine deacetylation product with water. […] The peak area for each detected compound was measured to determine the % deacetylation of each probe. All assay samples were analyzed in triplicate. […]
LCMS characterization of HDAC enzymatic action on HP-1 and HP-2. […] Following incubation, an aliquot of supernatant from each sample was analyzed by LCMS. […] The peak area for each detected compound was measured to determine the % deacetylation of each probe (full experimental details in Example 1).

As to `CC(=O)NC=CCCCCNC(=O)CCCCCNc1ccc([N+](=O)[O-])c2nonc12` [HP-1], the “% HP-1 to DHP-1” value by setting is: (HDAC6, +SAHA (10 μM)) 0%; (HDAC6, −SAHA) 0%.
